# Test results as given in paper PMC11079024, “Identification of a family of species-selective complex I inhibitors as potential anthelmintics” (Nature Communications, 2024).
# Values joined by “and” are separate entries in the source; they are usually repeats but may differ in a detail not shown here. Identical values can stand only once. Like-named read-outs stand apart in the source and are kept apart here.
# How the values were obtained:
# [1] = molecular target: C. elegans complex II (succinate dehydrogenase) (Caenorhabditis elegans, UniProt O62215+P41956+Q09545); assay: In vitro complex II activity assay, C. elegans mitochondria; type: biochemical; conditions: for Absorbance DCIP [600nm], complex II: single replicate
# Description: (§1) Mitochondria were isolated from the following free-living nematode strains: C. elegans—N2, CB3474, ECA882, ECA917, ECA1075, ECA1080; C. briggsae—AF16; P. pacificus—PS312; and P. hermaphrodita—B178. With the exception of the P. hermaphrodita strain B178, adult worms of each strain were grown in bulk through liquid culture to obtain mitochondria in sufficient quantities. Due to poor growth in liquid media, mixed stage populations of P. hermaphrodita were washed off and collected from NGM plates seeded with OP50. The isolation of mitochondria from all free-living nematode strains followed the protocol previously outlined in Burns et al.[24]. In brief, a 1 L saturated culture of E. coli HB101 was concentrated 20-fold in 50 mL complete S-medium. ~500,000 L1 worms synchronized from an embryo preparation performed the day prior were added to the S-media/HB101 suspension and grown to adulthood over the course of 3.5 days at 20 °C with shaking at 165 rpm. Following growth, worms were collected in 10 ×15 mL conical tubes and washed 7 times in M9 buffer. Worm suspensions were then combined into a single 15 mL conical tube and diluted to a final volume of 15 mL with M9 buffer. 1 mL aliquots of worm suspension were then distributed to 15 × 1.5 mL screw-cap microcentrifuge tubes and were pelleted at 500 g for 1 min. Excess M9 was aspirated without disturbing the worm pellet. 600 μL ice-cold isolate buffer A (250 mM sucrose, 10 mM Tris (pH 7.5), 1 mM EDTA, 1 mM PMSF (freshly prepared)) and 300 μL cold glass beads were then added to each tube. Tubes were incubated on ice for 10 min, and the worms were then lysed by bead beating (6 x 30 s, with 1 min cooling intervals). Tubes containing worm lysate were centrifuged at 1,000 g for 10 min at 4 °C and the supernatant was transferred to 15 new microcentrifuge tubes on ice. The tubes were centrifuged a second time at 1,000 g for 10 min at 4 °C and the supernatant was once again transferred to 15 new microcentrifuge tubes on ice. These tubes were then centrifuged at 16,000 g for 10 min at 4 °C. The resulting mitochondrial pellet was washed twice by re-suspension in 300 μL of ice-cold isolate buffer B (250 mM sucrose, 10 mM Tris (pH 7.5), 1 mM EDTA). Following the final wash, isolation buffer was aspirated from each tube and the pellets were flash-frozen in ethanol/dry ice and stored at −80 °C until needed.
# (§2) The enzymatic activities of individual ETC complexes (I-IV) were assessed spectrophotometrically in isolated mitochondria using a Varioskan LUX Multimode plate reader (ThermoFisher Scientific). Mitochondrial pellets previously isolated were thawed on ice and resuspended in ice-cold isolation buffer (250 mM sucrose, 10 mM Tris (pH 7.5), 1 mM EDTA). The BCA assay (Walker, 1994) was used to quantify the protein concentration of mitochondria suspensions; solutions were diluted to a concentration of 0.2 mg/mL for use in all assays. For the complex I assay, mitochondria pellets were freeze-thawed on ice three times to increase enzyme accessibility. […] 20 μL mitochondria suspension was then added/mixed with a pipette to initiate the reaction. Immediately following the addition of mitochondria, absorbance was measured (complex I and II: 600 nm; complex III and IV: 550 nm) in 30 s intervals over 15 min. Enzymatic activity was determined in each reaction by plotting absorbance versus time and calculating the slope of the curve during the initial linear phase of the reaction. […] Percent activity of each complex was calculated by dividing the enzyme-specific activity of each well by the enzyme-specific activity of the corresponding solvent controls.
# Complex II (succinate dehydrogenase) activity was assessed using the DCIP-coupled method previously described in Burns et al.[24].
# For preliminary screens of hit compounds, compounds were screened at 100 μM; data are the average of at least three biological replicates. The complex I and II activity assays were used for additional dose-response experiments.
# [2] = system: C. elegans complex IV (cytochrome C oxidase); assay: In vitro complex IV activity assay, C. elegans mitochondria; type: biochemical, Caenorhabditis elegans; conditions: for CIV Activity: 100 μM inhibitor, in vitro activity relative to solvent control, N2 C. elegans mitochondria
# Description: as §1, §2
# Complex IV (cytochrome C oxidase) activity was determined by following the oxidation of CytC in the protocol outlined by Janssen and Boyle, 2019[60]. Reduced CytC was prepared fresh by adding 1 μL increments of 1 M dithiothreitol to a 1 mM solution of CytC and vortexing. A colour change from brown to orange/pink signals when CytC has been reduced.
# [3] = system: C. elegans complex III (decylubiquinol-cytochrome C reductase); assay: In vitro complex III activity assay, C. elegans mitochondria; type: biochemical, Caenorhabditis elegans; conditions: for CIII Activity: 100 μM inhibitor, in vitro activity relative to solvent control, N2 C. elegans mitochondria
# Description: as §1, §2
# Antimycin A-sensitive complex III (decylubiquinol-cytochrome C […]) activity was determined by measuring the reduction of cytochrome C (CytC) as optimized in Luo et al.[59]. Decylubiquinol for complex III assays was prepared fresh as described in Janssen and Boyle, 2019[60].
# [4] = molecular target: C. elegans (N2) complex I (NADH:ubiquinone oxidoreductase) (Caenorhabditis elegans, UniProt P24887+Q93873+Q94360); assay: biochemical; type: biochemical
# Description: as §1, §2
# Chemical solutions were prepared in complex I assay buffer composed of 25 mM KPi buffer (pH 7.5), 3 mg/mL bovine serum albumin (BSA), 80 μM NADH, 60 μM decylubiquinone, 160 μM DCIP, 2 μM antimycin A and 2 mM KCN.
# For preliminary screens of hit compounds, compounds were screened at 100 μM; data are the average of at least three biological replicates.
# [5] = system: L1 wild-type C. elegans; conditions: for Relative Motility: relative to DMSO controls, single biological replicate
# [6] = 100 µM compound, relative to solvent control, mean (SEM)
# [7] = 100 μM of NPD compound, C. elegans mitochondria, individual biological replicates
# [8] = 100 μM of NPD compound, C. elegans mitochondria, mean of four biological replicates
# [9] = 100 μM of NPD compound, C. elegans mitochondria, individual biological replicates, 100 µM
# [10] = 50 μM, hit = relative motility below 0.25 3 hours after removal of KCN
# [11] = 50 μM, worm motility 3 hours after removal of KCN
# Sequence of C. elegans complex II (succinate dehydrogenase) (P41956 30-182): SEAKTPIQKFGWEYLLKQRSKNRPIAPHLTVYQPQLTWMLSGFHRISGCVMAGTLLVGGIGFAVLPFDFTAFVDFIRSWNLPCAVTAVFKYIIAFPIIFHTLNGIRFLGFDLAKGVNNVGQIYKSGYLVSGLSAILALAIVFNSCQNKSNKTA
# Sequence of C. elegans complex II (succinate dehydrogenase) (Q09545 22-298): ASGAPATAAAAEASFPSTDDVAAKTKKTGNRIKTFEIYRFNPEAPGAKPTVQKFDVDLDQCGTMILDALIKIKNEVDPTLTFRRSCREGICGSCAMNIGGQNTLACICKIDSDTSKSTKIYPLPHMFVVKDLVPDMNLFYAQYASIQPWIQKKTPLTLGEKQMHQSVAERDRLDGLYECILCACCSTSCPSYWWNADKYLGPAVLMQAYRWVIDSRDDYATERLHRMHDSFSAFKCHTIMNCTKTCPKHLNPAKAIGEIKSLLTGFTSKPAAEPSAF
# Sequence of C. elegans complex II (succinate dehydrogenase) (Q09508 32-646, further chain): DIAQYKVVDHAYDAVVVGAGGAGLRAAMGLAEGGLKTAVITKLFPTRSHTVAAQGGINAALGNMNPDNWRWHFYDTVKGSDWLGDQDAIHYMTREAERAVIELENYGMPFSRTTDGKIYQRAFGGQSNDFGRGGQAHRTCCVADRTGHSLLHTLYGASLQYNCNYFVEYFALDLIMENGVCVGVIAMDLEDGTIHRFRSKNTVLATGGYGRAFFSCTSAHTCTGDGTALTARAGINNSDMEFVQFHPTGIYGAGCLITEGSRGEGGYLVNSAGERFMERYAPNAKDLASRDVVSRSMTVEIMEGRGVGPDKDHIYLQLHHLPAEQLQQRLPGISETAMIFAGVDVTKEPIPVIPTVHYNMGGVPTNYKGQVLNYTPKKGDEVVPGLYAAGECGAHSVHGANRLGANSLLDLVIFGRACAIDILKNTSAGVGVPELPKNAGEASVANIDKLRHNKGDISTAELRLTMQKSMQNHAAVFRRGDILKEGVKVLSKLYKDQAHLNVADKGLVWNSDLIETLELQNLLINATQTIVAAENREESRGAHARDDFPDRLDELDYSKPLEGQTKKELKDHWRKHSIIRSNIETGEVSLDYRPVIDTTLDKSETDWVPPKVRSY
# Sequence of C. elegans complex II (succinate dehydrogenase) (O62215 31-145): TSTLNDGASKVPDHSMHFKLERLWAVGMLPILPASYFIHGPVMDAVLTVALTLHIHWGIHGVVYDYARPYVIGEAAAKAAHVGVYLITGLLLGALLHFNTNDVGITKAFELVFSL
# Sequence of C. elegans (N2) complex I (NADH:ubiquinone oxidoreductase) (Q94360 17-199): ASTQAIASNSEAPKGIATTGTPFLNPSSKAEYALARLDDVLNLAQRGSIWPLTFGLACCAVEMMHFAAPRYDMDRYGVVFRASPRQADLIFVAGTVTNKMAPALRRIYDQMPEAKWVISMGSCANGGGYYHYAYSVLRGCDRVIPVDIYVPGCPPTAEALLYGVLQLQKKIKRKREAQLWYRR
# Sequence of C. elegans (N2) complex I (NADH:ubiquinone oxidoreductase) (P24887 whole entry): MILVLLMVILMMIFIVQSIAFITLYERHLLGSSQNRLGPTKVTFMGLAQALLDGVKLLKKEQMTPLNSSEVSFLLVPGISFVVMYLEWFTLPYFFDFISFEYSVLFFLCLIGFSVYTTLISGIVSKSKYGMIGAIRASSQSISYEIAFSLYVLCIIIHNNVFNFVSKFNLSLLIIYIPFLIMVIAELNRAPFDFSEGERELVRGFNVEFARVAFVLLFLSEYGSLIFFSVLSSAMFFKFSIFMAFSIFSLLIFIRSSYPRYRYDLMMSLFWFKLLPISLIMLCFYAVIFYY
# Sequence of C. elegans (N2) complex I (NADH:ubiquinone oxidoreductase) (Q93873 31-482): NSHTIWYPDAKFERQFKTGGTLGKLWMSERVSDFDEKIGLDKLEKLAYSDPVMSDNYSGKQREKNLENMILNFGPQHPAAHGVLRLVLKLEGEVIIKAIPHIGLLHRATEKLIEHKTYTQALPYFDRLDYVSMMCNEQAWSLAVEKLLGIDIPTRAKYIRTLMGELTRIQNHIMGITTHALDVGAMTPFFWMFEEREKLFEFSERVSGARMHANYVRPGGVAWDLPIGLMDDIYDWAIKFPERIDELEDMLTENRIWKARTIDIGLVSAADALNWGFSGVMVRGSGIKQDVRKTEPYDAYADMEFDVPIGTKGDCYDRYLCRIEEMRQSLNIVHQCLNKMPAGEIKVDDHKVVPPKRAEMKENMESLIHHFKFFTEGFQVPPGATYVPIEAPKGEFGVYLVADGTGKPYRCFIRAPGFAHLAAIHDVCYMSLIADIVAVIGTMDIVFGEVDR
structure (smiles),measurement,setting,value
O=C(O)CC(=O)O [Malonate],"Absorbance DCIP [600nm], complex II",[1]; 30 s,0.481 and 0.464 and 0.499
same,"Absorbance DCIP [600nm], complex II",[1]; 60 s,0.480 and 0.464 and 0.499
same,"Absorbance DCIP [600nm], complex II",[1]; 90 s,0.480 and 0.464 and 0.499
same,"Absorbance DCIP [600nm], complex II",[1]; 120 s,0.480 and 0.464 and 0.499
same,"Absorbance DCIP [600nm], complex II",[1]; 150 s,0.480 and 0.463 and 0.499
same,"Absorbance DCIP [600nm], complex II",[1]; 180 s,0.480 and 0.463 and 0.499
same,"Absorbance DCIP [600nm], complex II",[1]; 210 s,0.480 and 0.463 and 0.498
same,"Absorbance DCIP [600nm], complex II",[1]; 240 s,0.480 and 0.463 and 0.498
same,"Absorbance DCIP [600nm], complex II",[1]; 270 s,0.479 and 0.462 and 0.498 and 0.486
same,"Absorbance DCIP [600nm], complex II",[1]; 300 s,0.479 and 0.461 and 0.498 and 0.486
same,"Absorbance DCIP [600nm], complex II",[1]; 330 s,0.478 and 0.461 and 0.497 and 0.485
same,"Absorbance DCIP [600nm], complex II",[1]; 360 s,0.477 and 0.460 and 0.496 and 0.484
same,"Absorbance DCIP [600nm], complex II",[1]; 390 s,0.476 and 0.460 and 0.495 and 0.483
same,"Absorbance DCIP [600nm], complex II",[1]; 420 s,0.476 and 0.459 and 0.494 and 0.482
same,"Absorbance DCIP [600nm], complex II",[1]; 450 s,0.475 and 0.459 and 0.494 and 0.482
same,"Absorbance DCIP [600nm], complex II",[1]; 480 s,0.475 and 0.458 and 0.494 and 0.481
same,"Absorbance DCIP [600nm], complex II",[1]; 510 s,0.474 and 0.457 and 0.493 and 0.481
same,"Absorbance DCIP [600nm], complex II",[1]; 540 s,0.473 and 0.457 and 0.492 and 0.480
same,"Absorbance DCIP [600nm], complex II",[1]; 570 s,0.473 and 0.457 and 0.492
same,"Absorbance DCIP [600nm], complex II",[1]; 600 s,0.472 and 0.457 and 0.491
same,"Absorbance DCIP [600nm], complex II",[1]; 630 s,0.471 and 0.457 and 0.491
same,"Absorbance DCIP [600nm], complex II",[1]; 660 s,0.470 and 0.456 and 0.490
same,"Absorbance DCIP [600nm], complex II",[1]; 690 s,0.470 and 0.456 and 0.490
same,"Absorbance DCIP [600nm], complex II",[1]; 720 s,0.470 and 0.455 and 0.489
same,"Absorbance DCIP [600nm], complex II",[1]; 750 s,0.470 and 0.455 and 0.489
same,"Absorbance DCIP [600nm], complex II",[1]; 780 s,0.469 and 0.454 and 0.489
same,"Absorbance DCIP [600nm], complex II",[1]; 810 s,0.469 and 0.454 and 0.489
same,"Absorbance DCIP [600nm], complex II",[1]; 840 s,0.470 and 0.453 and 0.490
same,"Absorbance DCIP [600nm], complex II",[1]; 870 s,0.469 and 0.453 and 0.489
same,"Absorbance DCIP [600nm], complex II",[1]; 900 s,0.468 and 0.453 and 0.489
"CCCCCC[C@H]1C(=O)O[C@H](C)[C@H](NC(=O)c2cccc(NC=O)c2O)C(=O)O[C@@H](C)[C@@H]1OC(=O)CC(C)C [Antimycin A, reference compound]",% Activity Complex IV,[2]; [6],94.00 (1.10) %
same,CIV Activity,[2]; Mean,94.002%
same,CIV Activity,[2]; single replicate,97.456% and 95.348% and 87.857% and 95.349%
same,"Percent in vitro activity, Complex IV (single replicate Rep1-Rep4)",[2]; [7],97.456% and 95.348% and 87.857% and 95.349%
same,"Percent in vitro activity, Complex IV (Mean)",[2]; [8],94.002%
same,% Activity Complex III,[3]; [6],0.00 (0.0) %
same,CIII Activity,[3]; Mean,0.000%
same,CIII Activity,[3]; single replicate,0.000%
same,"Percent in vitro activity, Complex III (single replicate Rep1-Rep4)",[3]; [7],0.000%
same,"Percent in vitro activity, Complex III (Mean)",[3]; [8],0.000%
same,activity at 100 µM,"[1]; 100 µM compound, relative to solvent control, mean (SEM), read-out: % Activity Complex II",79.5%
same,activity at 100 µM,"[1]; 100 μM inhibitor, in vitro activity relative to solvent control, N2 C. elegans mitochondria, Mean, read-out: CII Activity",79.5%
same,"Percent in vitro activity, Complex II (single replicate Rep1-Rep4)",[1]; [9],114.678% and 73.200% and 61.398% and 68.876%
same,activity at 100 µM,"[1]; 100 μM of NPD compound, C. elegans mitochondria, mean of four biological replicates, read-out: Percent in vitro activity, Complex II (Mean)",79.5%
same,activity at 100 µM,"[4]; 100 µM compound, relative to solvent control, mean (SEM), read-out: % Activity Complex I",117%
same,activity at 100 µM,"[4]; 100 μM inhibitor, in vitro activity relative to solvent control, N2 C. elegans mitochondria, Mean, read-out: CI Activity",117%
same,activity at 100 µM,"[4]; 100 μM inhibitor, in vitro activity relative to solvent control, N2 C. elegans mitochondria, single replicate, read-out: CI Activity",119%
same,"Percent in vitro activity, Complex I (single replicate Rep1-Rep4)",[4]; [9],116.806% and 115.361% and 116.592%
same,activity at 100 µM,"[4]; 100 μM of NPD compound, C. elegans mitochondria, individual biological replicates, read-out: Percent in vitro activity, Complex I (single replicate Rep1-Rep4)",119%
same,activity at 100 µM,"[4]; 100 μM of NPD compound, C. elegans mitochondria, mean of four biological replicates, read-out: Percent in vitro activity, Complex I (Mean)",117%
c1ccc2c(c1)ncn2CCOc1ccc2c(c1)CCC2 [Compound 7925762],"Screen ""Hit""","[5]; 50 μM compound, hit = relative motility below 0.25 3 hours after removal of KCN",Y (hits were identified as compounds that reduced relative motility below 0.25 (75% reduction))
same,Relative Motility,"[5]; 50 μM compound, worm motility 3 hours after removal of KCN",0.250
Cn1c(NCc2cccc(Br)c2)nc2ccccc21 [Compound 7766492],"Screen ""Hit""",[5]; [10],Y (hits were identified as compounds that reduced relative motility below 0.25 (75% reduction))
same,Relative Motility,[5]; [11],0.130
CCOc1ccc(CNc2nc3ccccc3n2CCN(CC)CC)cc1 [Compound 7768813],"Screen ""Hit""",[5]; [10],Y (hits were identified as compounds that reduced relative motility below 0.25 (75% reduction))
same,Relative Motility,[5]; [11],0.210
CC(C)CCSc1nc2ccccc2[nH]1 [Compound 5867913],"Screen ""Hit""","[5]; 50 μM, hit = relative motility below 0.25 3 hours after the removal of KCN",Y (hits were identified as compounds that reduced relative motility below 0.25 (75% reduction))
same,Relative Motility,"[5]; 50 μM, worm motility 3 hours after the removal of KCN (endpoint)",0.150
COC(=O)c1ccc(OCC(O)Cn2c(C)nc3ccccc32)cc1 (stereo not drawn) [Compound 5929389],Hit,[5]; active or inactive at 50 μM in C. elegans assay of RQ-dependent metabolism,non
Cc1ccc2[nH]c(-c3ccccc3N)nc2c1 [Compound 5534607],Hit,[5]; active (hit) or inactive (non) at 50 μM in C. elegans assay of RQ-dependent metabolism,non
